Values after ≈ are worked out from the molar mass of the structure shown. Read-outs that look alike come from different tables or passages of the source. Values belong to the molecule of their own block, whether it stands above or below them.
How the values were obtained:
C. neoformans [1] = assay: Broth microdilution susceptibility testing (CLSI M27-A3); format: cell-based, Cryptococcus neoformans; conditions: Cryptococcus neoformans
Description: (§1) C. neoformans strains H99, DUMC 118.00, and DUMC 158.03 and C. gattii strains R272 and RSA-MW-3515 were obtained from Duke University. C. albicans 90028, A. fumigatus MYA3626, C. neoformans 14116, C. neoformans 76484, and the pathogenic Cryptococcus reference strains panel (ATCC MP-11) were obtained from the American Type Culture Collection (ATCC; Manassas, VA, USA). The ATCC MP-11 panel consists of strains representing eight molecular types and three subtypes of C. neoformans and C. gattii.
(§2) To establish the antimicrobial activity of the APX001A analogs, broth microdilution susceptibility testing was performed according to Clinical and Laboratory Standards Institute (CLSI) guidelines M27-A3 ([47]) for yeasts and M38-A2 for molds ([48]). APX001A and analogs were first diluted in DMSO to obtain intermediate dilutions. These were further diluted in microtiter plates to obtain a final concentration of 2 to 0.002 μg/ml. One microliter of DMSO was added to the no-drug control wells. The solutions were mixed on a plate shaker for 10 min, and the plates were incubated at 35°C for 40 to 48 h (C. albicans, A. fumigatus) and 72 h (C. neoformans). The minimum concentration that led to a 50% reduction in fungal growth compared to that for the control (determined with the aid of a reading mirror) was determined as the MIC for C. albicans and C. neoformans. The minimum concentration that led to the shortening of hyphae compared to the hyphal growth in DMSO control wells was determined as the minimum effective concentration (MEC) for A. fumigatus (as read for the echinocandins). The use of the MIC and MEC endpoints for APX001A (formerly E1210) against yeasts and molds, respectively, has been described previously ([19][–][21]). For the cryptococcal synergy studies, APX001A and APX2020 MIC values were read at 50% inhibition.

C. gattii = assay: as above; format: cell-based; conditions: Cryptococcus gattii
Description: as §1, §2

C. albicans 90028 = assay: as above; format: cell-based, Candida albicans; conditions: Candida albicans, 90028; read-out: MIC, C. albicans 90028
Description: as §1, §2

A. fumigatus MYA3626 = assay: Broth microdilution susceptibility testing for molds (CLSI M38-A2); format: cell-based; conditions: Aspergillus fumigatus, MYA3626; read-out: MIC or MEC for A. fumigatus MYA3626
Description: as §1, §2

[2] = system: FLC-susceptible and FLC-nonsusceptible/resistant strains of C. neoformans and C. gattii; assay: Broth microdilution, summary over the 18-strain Cryptococcus collection; format: cell-based, Cryptococcus neoformans and Cryptococcus gattii; conditions: 18 strains of C. neoformans and C. gattii
Protocol: as §2, with “The minimum concentration that led to the shortening of hyphae compared to the hyphal growth in DMSO control wells was determined as the minimum effective concentration (MEC) for A. fumigatus (as read for the echinocandins).” left out

C. neoformans strain H99 [3] = assay: Delayed-treatment model of cryptococcal meningitis; format: in vivo, Cryptococcus neoformans; conditions: treatment from 24 h after infection, QD 7 days; APX2096 60 mg/kg i.p. + ABT, AMB 3 mg/kg i.p.
Protocol: As in the previous mouse model, 100-mg/kg ABT (p.o.) was administered 2 h prior to each APX2096 dose (n = 5 mice/cohort). Infection was initiated on day 1, and treatment was initiated 24 h later (day 2) rather than 1 h later. Treatments were administered for 7 days (the final dose was administered on day 8), and mice were sacrificed on day 9 for CFU enumeration.
Male CD-1 mice were infected with 5.4 × 10^4 CFU per mouse via lateral tail vein injection. […] A dose of 100-mg/kg ABT was administered orally 2 h prior to each APX2096 dose. Mice were sacrificed 24 h after the last dose, and the brain and left lung were homogenized and cultured for quantitative determination of the tissue burden (number of CFU per gram of tissue). Fungal burden data were log10 transformed and evaluated using Kruskal-Wallis tests with Dunn's multiple-comparison test for post hoc analysis (Prism software, v5; GraphPad Software, Inc., San Diego, CA). A P value of ≤0.05 was considered statistically significant (*, P ≤ 0.05; **, P ≤ 0.01). The 95% confidence interval (CI) is presented.
Fungal burden data were log10 transformed and evaluated using Kruskal-Wallis tests with Dunn's multiple-comparison test for post hoc analysis (Prism software, v5; GraphPad Software, Inc., San Diego, CA). A P value of ≤0.05 was considered statistically significant.

C. neoformans [4] = system: C. neoformans; design: method as in PMID 15078612; conditions: U.S. isolates; cited from earlier work
C. neoformans strain H99 [5] = assay: Murine cryptococcal meningitis model with ABT pretreatment (preliminary experiment); format: in vivo, Cryptococcus neoformans; conditions: 7 days
Protocol: In a preliminary experiment, the efficacies of APX001, APX2096, and APX2097 were evaluated in the disseminated model of CM (n = 5 mice/cohort). ABT at 100 mg/kg was administered orally to male CD-1 mice 2 h prior to APX compound administration. Mice were injected with 6.9 × 10^4 CFU of C. neoformans strain H99 per mouse via the lateral tail vein at time zero. Treatment with each prodrug was initiated at about 1 h postinfection by i.p. administration and continued daily for 7 days, with 100-mg/kg ABT being administered orally 2 h prior to each APX compound dose.
(§3) ABT at 100 mg/kg was administered orally to male CD-1 mice at 2 h prior to each APX compound dose. Mice were injected with 6.9 × 10^4 CFU of C. neoformans strain H99 per mouse via the lateral tail vein at time zero. Treatment with the APX compound was initiated at about 1 h postinfection by i.p. administration and continued for 7 days, with 100-mg/kg ABT being administered orally 2 h prior to each APX compound dose. […] Fungal burden data were log10 transformed and evaluated using Kruskal-Wallis tests with Dunn's multiple-comparison test for post hoc analysis (Prism software, v5; GraphPad Software, Inc., San Diego, CA). A P value of ≤0.05 was considered statistically significant (*, P ≤ 0.05; **, P ≤ 0.01). The 95% confidence interval (CI) is presented.
(§4) C. neoformans strain H99 was grown in yeast extract-peptone-dextrose broth at 30°C on a shaker (220 rpm) for 24 h, centrifuged (1,980 relative centrifugal force), and washed twice in phosphate-buffered saline (PBS), resuspended in PBS, and quantified by hemacytometric count. Male CD-1 mice were infected with ∼5 × 10^4 CFU per mouse via lateral tail vein injection of 100 μl. Mice were weighed, and treatment was begun within 1 h after infection. Treatments were administered daily for 7 days. Mice were weighed daily and observed for acute and chronic adverse symptoms. Mice were sacrificed on day 8, and the brain and left lung were homogenized and cultured for quantitative determination of the tissue burden (number of CFU per gram of tissue). Tissues were homogenized for 25 s in 1 ml phosphate-buffered saline using two 6.5-mm steel beads and a Mini-Beadbeater 16 apparatus (Biospec Products, Inc., Bartlesville, OK) and serially diluted in 10-fold steps. Aliquots (100 μl) of homogenate were plated and incubated for 3 to 7 days at 37°C. Fungal burden data were log10 transformed and evaluated using Kruskal-Wallis tests with Dunn's multiple-comparison test for post hoc analysis (Prism software, v5; GraphPad Software, Inc., San Diego, CA). A P value of ≤0.05 was considered statistically significant.

C. neoformans strain H99 [6] = assay: Murine cryptococcal meningitis model with ABT, dose-response study; format: in vivo, Cryptococcus neoformans
Protocol: A dose-response study was performed with APX2096 and APX2097 to confirm the observed activity. In this study, QD doses of 7.5, 20, and 60 mg/kg were evaluated in conjunction with the administration of ABT. A 60-mg/kg dose QD without ABT was also evaluated as a control.
FIG 3 Dose-response of APX2096 and APX2097 in a murine model of cryptococcal meningitis in conjunction with ABT administration. ABT at 100 mg/kg was administered orally to male CD-1 mice at 2 h prior to each APX compound dose. Mice were injected with 4.8 × 10^4 CFU C. neoformans strain H99 per mouse via the lateral tail vein at time zero. Treatment with the APX compounds was initiated at 1 h postinfection by i.p. administration and continued for 7 days, with 100-mg/kg ABT being administered orally 2 h prior to each APX compound dose. The correction factors for prodrug potencies versus the potencies of the active moieties were similar enough such that the same factor (1.3) was used for all APX compounds. Fungal burden data were log10 transformed and evaluated using Kruskal-Wallis tests with Dunn's multiple-comparison test for post hoc analysis (Prism software, v5; GraphPad Software, Inc., San Diego, CA). […] A P value of ≤0.05 was considered statistically significant (*, P ≤ 0.05; **, P ≤ 0.01; ***, P ≤ 0.001). The 95% confidence interval (CI) is presented.
as §4

[7] = Acute toxicity and survival observed in the CM model with ABT; format: in vivo, mouse; conditions: i.p. dosing + ABT; dose then reduced to 60 mg/kg for surviving mice
Protocol: as §3, §4

[8] = 34 mg/kg QD i.p. + ABT 100 mg/kg p.o.
[9] = 85 mg/kg QD i.p. + ABT 100 mg/kg p.o.
[10] = QD doses of 7.5, 20 and 60 mg/kg i.p. + ABT
[11] = QD doses of 7.5, 20 and 60 mg/kg i.p. + ABT, not significant

- MIC (C. neoformans [1]; 72 h, Table 1, 50% growth inhibition for FLC, caspofungin and APX compounds, 100% for AMB, 72 h, read-out: MIC, C. neoformans H99): 0.25 mg/L
- MIC (C. neoformans [1]; C. neoformans isolate 14116, read-out: MIC): 0.25 mg/L
- MIC (C. neoformans [1]; C. neoformans isolate 76484, read-out: MIC): 0.25 mg/L
- MIC (C. neoformans [1]; C. neoformans isolate DUMC 118.00 (FLC resistant), read-out: MIC): 0.25 mg/L
- MIC (C. neoformans [1]; C. neoformans isolate DUMC 158.03 (FLC resistant), read-out: MIC): 1 mg/L
- MIC (C. neoformans [1]; C. neoformans isolate MYA-4564, read-out: MIC): 0.25 mg/L
- MIC (C. neoformans [1]; C. neoformans isolate MYA-4565, read-out: MIC): 0.125 mg/L
- MIC (C. neoformans [1]; C. neoformans isolate MYA-4566, read-out: MIC): 0.25 mg/L
- MIC (C. neoformans [1]; C. neoformans isolate MYA-4567, read-out: MIC): 0.25 mg/L
- MIC (C. neoformans [1]; Table 2, C. neoformans isolate H99, read-out: MIC): 0.25 mg/L
- MIC (C. gattii; C. gattii isolate MYA-4093, read-out: MIC): 0.25 mg/L
- MIC (C. gattii; C. gattii isolate MYA-4094, read-out: MIC): 0.25 mg/L
- MIC (C. gattii; C. gattii isolate MYA-4560 (first listing, r17), read-out: MIC): 0.063 mg/L
- MIC (C. gattii; C. gattii isolate MYA-4560 (second listing, r21), read-out: MIC): 0.063 mg/L
- MIC (C. gattii; C. gattii isolate MYA-4561, read-out: MIC): 0.25 mg/L
- MIC (C. gattii; C. gattii isolate MYA-4562, read-out: MIC): 0.25 mg/L
- MIC (C. gattii; C. gattii isolate MYA-4563, read-out: MIC): 0.125 mg/L
- MIC (C. gattii; C. gattii isolate MYA-4877, read-out: MIC): 0.25 mg/L
- MIC (C. gattii; C. gattii isolate RSA-MW-3615 (FLC resistant), read-out: MIC): 0.25 mg/L
- MIC (C. gattii; Table 1, 50% growth inhibition for FLC, caspofungin and APX compounds, 100% for AMB, read-out: MIC, C. gattii WM276): 0.25 mg/L
- MIC (C. albicans 90028): 1 mg/L
- MIC (A. fumigatus MYA3626): 1 mg/L
- MIC90 [2]: 0.25 mg/L
- MIC ([2]; read-out: Geometric mean MIC): 0.215 mg/L
SMILES: C[C@@H]1[C@H](O)[C@@H](C)/C=C/C=C/C=C/C=C/C=C/C=C/C=C/[C@H](O[C@@H]2O[C@H](C)[C@@H](O)[C@H](N)[C@@H]2O)C[C@@H]2O[C@](O)(C[C@@H](O)C[C@@H](O)[C@H](O)CC[C@@H](O)C[C@@H](O)CC(=O)O[C@H]1C)C[C@H](O)[C@H]2C(=O)O [AMB, amphotericin B, reference compound]
- reduction of the lung tissue fungal burden vs untreated control (C. neoformans strain H99 [3]): 4.02 log10 CFU/g
- MIC90 (C. neoformans [4]): 2 mg/L (≈ 2.16 µM)

SMILES: Nc1c(-c2cc(Cc3ccc(OCc4ccccc4)cc3)no2)ccc[n+]1COP(=O)([O-])O [APX2097]
- reduction in brain fungal burden (C. neoformans strain H99 [5]; [8]): 1.66 log10 CFU/g
- reduction in lung fungal burden (C. neoformans strain H99 [5]; [8]): 1.07 log10 CFU/g
- reduction in brain fungal burden (C. neoformans strain H99 [5]; [9]): 2.72 log10 CFU/g
- reduction in lung fungal burden (C. neoformans strain H99 [5]; [9]): 3.28 log10 CFU/g
- reduction in brain fungal burden (C. neoformans strain H99 [6]; 60 mg/kg QD i.p. + ABT): 1.45 log10 CFU/g
- reduction in lung fungal burden (C. neoformans strain H99 [6]; 60 mg/kg QD i.p. + ABT): 1.55 log10 CFU/g
- dose-dependent change in brain fungal burden: increase end of range (C. neoformans strain H99 [6]; [10]): 0.24 log10 CFU/g
- dose-dependent change in lung fungal burden: increase end of range (C. neoformans strain H99 [6]; [10]): 1.20 log10 CFU/g
- dose-dependent change in brain fungal burden: reduction end of range (C. neoformans strain H99 [6]; [11]): 1.45 log10 CFU/g
- dose-dependent change in lung fungal burden: reduction end of range (C. neoformans strain H99 [6]; [11]): 1.55 log10 CFU/g
- Acute toxicity observed (day of treatment) [7]: day 6
